Measured values reported in paper PMC8196580, “Identification of Kaurane-Type Diterpenes as Inhibitors of Leishmania Pteridine Reductase I” (Molecules, 2021).
Where two headings read alike, the source gives them in different places.

Experiments:
L. major [1] = assay: ChEMBL dataset of pIC50 values against L. major used for the RF model (Table S1); assay type: cell-based, Leishmania major; also: call rule not given here
Excerpt: From the ChEMBL database (https://www.ebi.ac.uk/chembl/, accessed on 10 January 2021), we selected a diverse set of 1085 structures that were initially classified according to their predicted activity against L. major.
Excluding these structures minimized the differences in activity values resulting from errors and differences in experimental protocols. […] Standardizer software [JChem, version 16.11.28 (2016), calculation module developed by ChemAxon, https://www.chemaxon.com/, accessed on 20 January 2021] was used to canonize all simplified molecular-input line-entry system (SMILES) codes. After duplicate structures were removed, those with higher pIC50 values were eliminated, facilitating the generation of more restrictive models.

L. major [2] = tested on: L. major; design: method as in ChEMBL; conditions: ref ChEMBL, cited from earlier work
[3] = Active/Inactive class assigned to the ChEMBL pIC50 value for Random forest model construction, ref ChEMBL
[4] = ChemBL structures with pIC50 values used for Random forest model construction, L. major
[5] = Active/Inactive class assigned to ChemBL structures for Random forest model construction (Table S1)
[6] = ChemBL structures with pIC50 values used for Random forest model construction (Table S1)

CN1CCN(c2nnc(-c3ccc([N+](=O)[O-])o3)s2)CC1 [CHEMBL372024]
Outcome (L. major [1]; [3]): Active | pIC50 Value (L. major [2]; [4]): 5.14

O=[N+]([O-])c1ccc(-c2nnc(N3CCCCC3)s2)o1 [CHEMBL372172]
Outcome (L. major [1]; [5]): Active | pIC50 Value (L. major [2]; [6]): 5.49

COc1cc(C)c(-c2ccc(O)c3c2C[C@@H](C)N[C@@H]3C)c2cccc(O)c12 [CHEMBL375542]
Outcome (L. major [1]; [3]): Inactive | pIC50 Value (L. major [2]; [4]): 4.44

Oc1ccc(-c2nc3ccccc3[nH]2)cc1 [CHEMBL377740]
Outcome (L. major [1]; [5]): Active | pIC50 Value (L. major [2]; [6]): 5.36

COc1ccc(-c2nc3ccccc3[nH]2)cc1 [CHEMBL379179]
Outcome (L. major [1]; [5]): Active | pIC50 Value (L. major [2]; [6]): 5.44

c1ccc2[nH]c(-c3ccncc3)nc2c1 [CHEMBL379376]
Outcome (L. major [1]; [5]): Active | pIC50 Value (L. major [2]; [6]): 5.35

O=[N+]([O-])c1ccc2nc(-c3ccccn3)[nH]c2c1 [CHEMBL380979]
Outcome (L. major [1]; [5]): Active | pIC50 Value (L. major [2]; [6]): 5.52

O=[N+]([O-])c1ccc(-c2nnc(N3CCN(c4ccccc4)CC3)s2)s1 [CHEMBL382933]
Outcome (L. major [1]; [3]): Inactive | pIC50 Value (L. major [2]; [4]): 3.98

COc1cc(OC)c(-c2ccc(OC)c3c(OC)cc(C)cc23)c2c1C(C)=N[C@@H](C)C2 [CHEMBL390586]
Outcome (L. major [1]; [3]): Inactive | pIC50 Value (L. major [2]; [4]): 4.00

CC(C)(C)OC(=O)N1CCN(c2cc(-c3ccc(Oc4ccccc4)cc3)n[nH]2)CC1 [CHEMBL394241]
Outcome (L. major [1]; [3]): Inactive | pIC50 Value (L. major [2]; [4]): 4.89

C=C[C@@]1(C)CC2=C(C[C@H]1C(=C)C)C(=O)C=CC2=O [CHEMBL401583]
Outcome (L. major [1]; [3]): Inactive | pIC50 Value (L. major [2]; [4]): 4.06

C=C1CCC[C@@]2(C)CC3=C(C[C@@H]12)C(=O)C=CC3=O [CHEMBL401659]
Outcome (L. major [1]; [3]): Inactive | pIC50 Value (L. major [2]; [4]): 4.99

COc1cccc2c(-c3ccc4c(c3O)[C@@H](C)N[C@H](C)C4)c(C)cc(OC)c12 [CHEMBL410597]
Outcome (L. major [1]; [3]): Inactive | pIC50 Value (L. major [2]; [4]): 4.33

CNc1ccc(Nc2c3ccccc3nc3ccccc23)cc1 [CHEMBL415467]
Outcome (L. major [1]; [5]): Active | pIC50 Value (L. major [2]; [6]): 5.82

CCCCCCN(C)c1ccc(Nc2c3ccccc3nc3ccccc23)cc1 [CHEMBL415472]
Outcome (L. major [1]; [5]): Active | pIC50 Value (L. major [2]; [6]): 6.52

CCCCCCNc1ccc(Nc2c3ccc(Cl)cc3nc3ccc(OC)cc23)cc1 [CHEMBL420434]
Outcome (L. major [1]; [5]): Active | pIC50 Value (L. major [2]; [6]): 6.70

COc1cc2c(c(OC)c1)C(C)=[N+](c1ccc3cc(C)cc(OC)c3c1O)[C@@H](C)C2.O=C([O-])C(F)(F)F [CHEMBL426747]
Outcome (L. major [1]; [5]): Active | pIC50 Value (L. major [2]; [6]): 5.91

COc1ccc(/C=C/C(=O)c2ccc(O)cc2)c(OC)c1 [CHEMBL434066]
Outcome (L. major [1]; [5]): Active | pIC50 Value (L. major [2]; [6]): 5.40

CNc1ccc(Nc2c3ccccc3nc3ccccc23)cc1OC(C)C [CHEMBL439951]
Outcome (L. major [1]; [5]): Active | pIC50 Value (L. major [2]; [6]): 5.89

C=C[C@@]1(C)Cc2c(OC(C)=O)ccc(OC(C)=O)c2C[C@H]1C(=C)C [CHEMBL442439]
Outcome (L. major [1]; [5]): Active | pIC50 Value (L. major [2]; [6]): 5.37

O=[N+]([O-])c1ccc(-c2nnc(N3CCN(c4ccccc4)CC3)s2)o1 [CHEMBL448103]
Outcome (L. major [1]; [5]): Active | pIC50 Value (L. major [2]; [6]): 7.00

CO[C@H]1C[C@@H](C)[C@H]2[C@H](C[C@@]3(C)[C@@H]4C[C@H](O)[C@H]5C(C)(C)[C@@H](O[C@@H]6OC[C@@H](O)[C@@H](O)[C@H]6O)CC[C@@]56C[C@@]46CC[C@]23C)O1 [CHEMBL450438]
Outcome (L. major [1]; [3]): Inactive | pIC50 Value (L. major [2]; [4]): 4.03

C=C[C@H](/C=C\c1ccc(O)cc1)c1ccc(O)cc1 [CHEMBL451713]
Outcome (L. major [1]; [3]): Inactive | pIC50 Value (L. major [2]; [4]): 4.92

COCCOC(=O)C1=C(C)NC(C)=C(C(=O)OC/C=C/c2ccccc2)C1c1cccc([N+](=O)[O-])c1 (stereo not shown) [CHEMBL452076]
Outcome (L. major [1]; [3]): Inactive | pIC50 Value (L. major [2]; [4]): 4.67

C/C=C/C1=C(OC)C(=O)C(OC)=C(OC)C1=O [CHEMBL454996]
Outcome (L. major [1]; [3]): Inactive | pIC50 Value (L. major [2]; [4]): 4.14

C[C@@H]1CC[C@@]2(OC1)O[C@H]1C[C@H]3C4=CCC5=CC(=O)[C@@H](O)C[C@]5(C)[C@H]4C[C@H](O)[C@]3(C)[C@H]1[C@@H]2C [CHEMBL455616]
Outcome (L. major [1]; [3]): Inactive | pIC50 Value (L. major [2]; [4]): 4.15

O=C(c1ccccc1Cl)N1CCN(c2nnc(-c3ccc([N+](=O)[O-])o3)s2)CC1 [CHEMBL458179]
Outcome (L. major [1]; [3]): Inactive | pIC50 Value (L. major [2]; [4]): 4.97

O=C(c1cccc(Cl)c1)N1CCN(c2nnc(-c3ccc([N+](=O)[O-])o3)s2)CC1 [CHEMBL458527]
Outcome (L. major [1]; [3]): Inactive | pIC50 Value (L. major [2]; [4]): 4.88

O=C(c1ccc(Cl)cc1)N1CCN(c2nnc(-c3ccc([N+](=O)[O-])o3)s2)CC1 [CHEMBL458528]
Outcome (L. major [1]; [3]): Inactive | pIC50 Value (L. major [2]; [4]): 4.58

O=C(c1cccs1)N1CCN(c2nnc(-c3ccc([N+](=O)[O-])o3)s2)CC1 [CHEMBL458529]
Outcome (L. major [1]; [3]): Inactive | pIC50 Value (L. major [2]; [4]): 4.72

O=C(c1ccc(Br)s1)N1CCN(c2nnc(-c3ccc([N+](=O)[O-])o3)s2)CC1 [CHEMBL458771]
Outcome (L. major [1]; [3]): Inactive | pIC50 Value (L. major [2]; [4]): 4.88

O=C(c1ccccc1Cl)N1CCN(c2nnc(-c3ccc([N+](=O)[O-])s3)s2)CC1 [CHEMBL458772]
Outcome (L. major [1]; [3]): Inactive | pIC50 Value (L. major [2]; [4]): 4.46

O=C(c1cccc(Cl)c1)N1CCN(c2nnc(-c3ccc([N+](=O)[O-])s3)s2)CC1 [CHEMBL458778]
Outcome (L. major [1]; [3]): Inactive | pIC50 Value (L. major [2]; [4]): 4.30

O=C(c1cccs1)N1CCN(c2nnc(-c3ccc([N+](=O)[O-])s3)s2)CC1 [CHEMBL464864]
Outcome (L. major [1]; [3]): Inactive | pIC50 Value (L. major [2]; [4]): 4.55

O=C(c1ccc(Cl)s1)N1CCN(c2nnc(-c3ccc([N+](=O)[O-])s3)s2)CC1 [CHEMBL464870]
Outcome (L. major [1]; [3]): Inactive | pIC50 Value (L. major [2]; [4]): 4.62

Cc1cccc2oc(=O)c3c(c12)O[C@@H](C)[C@@]3(C)CC(=O)[C@@H]1OC1(C)C [CHEMBL465559]
Outcome (L. major [1]; [3]): Inactive | pIC50 Value (L. major [2]; [4]): 4.43

Clc1ccccc1-c1nc2ccccc2[nH]1 [CHEMBL473162]
Outcome (L. major [1]; [5]): Active | pIC50 Value (L. major [2]; [6]): 5.47

Clc1ccc(-c2nc3ccccc3[nH]2)cc1 [CHEMBL473163]
Outcome (L. major [1]; [5]): Active | pIC50 Value (L. major [2]; [6]): 5.50

O=[N+]([O-])c1ccc(-c2nc3ccccc3[nH]2)cc1 [CHEMBL473361]
Outcome (L. major [1]; [5]): Active | pIC50 Value (L. major [2]; [6]): 5.53

COc1cc(OC)c2c(C)[n+](-c3cccc4c3C(=O)c3ccccc3C4=O)c(C)cc2c1.F[B-](F)(F)F [CHEMBL474599]
Outcome (L. major [1]; [3]): Inactive | pIC50 Value (L. major [2]; [4]): 4.00

Cc1nc(-c2ccccn2)nc(N2CCC(Cc3ccccc3)C2)c1Cl (stereo not shown) [CHEMBL474899]
Outcome (L. major [1]; [3]): Active | pIC50 Value (L. major [2]; [4]): 5.05

O=[N+]([O-])c1cccc(-c2nc3ccccc3[nH]2)c1 [CHEMBL475377]
Outcome (L. major [1]; [5]): Active | pIC50 Value (L. major [2]; [6]): 5.47

CCOC(=O)C1=C(C)NC(C)=C(C(=O)OC)C1c1cccc([N+](=O)[O-])c1 (stereo not shown) [CHEMBL475534]
Outcome (L. major [1]; [3]): Inactive | pIC50 Value (L. major [2]; [4]): 4.48

COc1cc(OC)c2c(C)[n+](-c3cccc4ccccc34)c(C)cc2c1.F[B-](F)(F)F [CHEMBL479641]
Outcome (L. major [1]; [5]): Active | pIC50 Value (L. major [2]; [6]): 5.79

CCc1ccc(-[n+]2c(C)cc3cc(OC)cc(OC)c3c2C)cc1.F[B-](F)(F)F [CHEMBL479649]
Outcome (L. major [1]; [3]): Active | pIC50 Value (L. major [2]; [4]): 5.26

COc1cc(OC)c2c(C)[n+](-c3ccc4ccccc4c3)c(C)cc2c1.F[B-](F)(F)F [CHEMBL479838]
Outcome (L. major [1]; [5]): Active | pIC50 Value (L. major [2]; [6]): 5.47

COc1cc2c(c(OC)c1)C(C)N(c1ccc(OC)c3c(OC)cc(C)cc13)[C@@H](C)C2 (stereo partly shown) [CHEMBL479849]
Outcome (L. major [1]; [3]): Inactive | pIC50 Value (L. major [2]; [4]): 4.19

COc1cc2c(c(OC)c1)C(C)N(c1ccc(OC)c3c(OC)cc(C)cc13)[C@H](C)C2 (stereo partly shown) [CHEMBL479850]
Outcome (L. major [1]; [3]): Inactive | pIC50 Value (L. major [2]; [4]): 4.18

COc1cc(OC)c2c(C)[n+](-c3ccc(O)cc3)c(C)cc2c1.O=C([O-])C(F)(F)F [CHEMBL480760]
Outcome (L. major [1]; [3]): Inactive | pIC50 Value (L. major [2]; [4]): 4.80

COc1cc(OC)c2c(C)[n+](-c3ccc(OC(C)=O)cc3)c(C)cc2c1.F[B-](F)(F)F [CHEMBL480761]
Outcome (L. major [1]; [3]): Inactive | pIC50 Value (L. major [2]; [4]): 4.00
